The NIST ThermoML archive (doi:10.1021/je400056z)
Numbers after ± are expanded uncertainties.

Experiment: xn = mol fraction of the nth substance listed
Conditions: Liquid, Vibrating tube method

CCCCCCCCCCCCC [tridecane] + O=C=O
Conditions	mass density [kg/m3]
313.15 K, 9000 kPa, x2 = 0.0955	750.6 ± 0.3
313.15 K, 9000 kPa, x2 = 0.2526	754.3 ± 0.3
313.15 K, 9000 kPa, x2 = 0.7549	791.4 ± 0.3
313.15 K, 9000 kPa, x2 = 0.8978	790.8 ± 0.3
313.15 K, 10000 kPa, x2 = 0.0955	751.4 ± 0.3
313.15 K, 10000 kPa, x2 = 0.2526	755.1 ± 0.3
313.15 K, 10000 kPa, x2 = 0.7549	794.4 ± 0.3
313.15 K, 10000 kPa, x2 = 0.8978	795.2 ± 0.3
313.15 K, 11000 kPa, x2 = 0.0955	752.2 ± 0.3
313.15 K, 11000 kPa, x2 = 0.2526	756 ± 0.3
313.15 K, 11000 kPa, x2 = 0.7549	797.7 ± 0.3
313.15 K, 11000 kPa, x2 = 0.8978	799.4 ± 0.3
313.15 K, 12000 kPa, x2 = 0.0955	753 ± 0.3
313.15 K, 12000 kPa, x2 = 0.2526	756.8 ± 0.3
313.15 K, 12000 kPa, x2 = 0.7549	800.8 ± 0.3
313.15 K, 12000 kPa, x2 = 0.8978	803.7 ± 0.3
313.15 K, 13000 kPa, x2 = 0.0955	753.7 ± 0.4
313.15 K, 13000 kPa, x2 = 0.2526	757.6 ± 0.3
313.15 K, 13000 kPa, x2 = 0.7549	803.7 ± 0.3
313.15 K, 13000 kPa, x2 = 0.8978	807.9 ± 0.3
313.15 K, 14000 kPa, x2 = 0.0955	754.5 ± 0.4
313.15 K, 14000 kPa, x2 = 0.2526	758.4 ± 0.3
313.15 K, 14000 kPa, x2 = 0.7549	806.6 ± 0.3
313.15 K, 14000 kPa, x2 = 0.8978	812 ± 0.3
313.15 K, 15000 kPa, x2 = 0.0955	755.2 ± 0.4
313.15 K, 15000 kPa, x2 = 0.2526	759.2 ± 0.4
313.15 K, 15000 kPa, x2 = 0.7549	809.4 ± 0.3
313.15 K, 15000 kPa, x2 = 0.8978	815.9 ± 0.3
313.15 K, 16000 kPa, x2 = 0.0955	756 ± 0.4
313.15 K, 16000 kPa, x2 = 0.2526	759.9 ± 0.4
313.15 K, 16000 kPa, x2 = 0.7549	812.1 ± 0.3
313.15 K, 16000 kPa, x2 = 0.8978	819.5 ± 0.3
313.15 K, 17000 kPa, x2 = 0.0955	756.6 ± 0.4
313.15 K, 17000 kPa, x2 = 0.2526	760.7 ± 0.4
313.15 K, 17000 kPa, x2 = 0.7549	814.8 ± 0.3
313.15 K, 17000 kPa, x2 = 0.8978	823.1 ± 0.3
313.15 K, 18000 kPa, x2 = 0.0955	757.3 ± 0.4
313.15 K, 18000 kPa, x2 = 0.2526	761.4 ± 0.4
313.15 K, 18000 kPa, x2 = 0.7549	817.4 ± 0.3
313.15 K, 18000 kPa, x2 = 0.8978	826.6 ± 0.3
313.15 K, 19000 kPa, x2 = 0.0955	758 ± 0.4
313.15 K, 19000 kPa, x2 = 0.2526	762.1 ± 0.4
313.15 K, 19000 kPa, x2 = 0.7549	819.8 ± 0.3
313.15 K, 19000 kPa, x2 = 0.8978	830.1 ± 0.3
313.15 K, 20000 kPa, x2 = 0.0955	758.7 ± 0.4
313.15 K, 20000 kPa, x2 = 0.2526	762.8 ± 0.4
313.15 K, 20000 kPa, x2 = 0.7549	822.2 ± 0.3
313.15 K, 20000 kPa, x2 = 0.8978	833.3 ± 0.3
313.15 K, 21000 kPa, x2 = 0.0955	759.3 ± 0.4
313.15 K, 21000 kPa, x2 = 0.2526	763.5 ± 0.4
313.15 K, 21000 kPa, x2 = 0.7549	824.6 ± 0.3
313.15 K, 21000 kPa, x2 = 0.8978	836.4 ± 0.3
313.15 K, 22000 kPa, x2 = 0.0955	759.9 ± 0.4
313.15 K, 22000 kPa, x2 = 0.2526	764.2 ± 0.4
313.15 K, 22000 kPa, x2 = 0.7549	826.9 ± 0.3
313.15 K, 22000 kPa, x2 = 0.8978	839.5 ± 0.3
313.15 K, 23000 kPa, x2 = 0.0955	760.5 ± 0.4
313.15 K, 23000 kPa, x2 = 0.2526	764.8 ± 0.4
313.15 K, 23000 kPa, x2 = 0.7549	829.1 ± 0.3
313.15 K, 23000 kPa, x2 = 0.8978	842.6 ± 0.3
313.15 K, 24000 kPa, x2 = 0.0955	761.1 ± 0.4
313.15 K, 24000 kPa, x2 = 0.2526	765.4 ± 0.4
313.15 K, 24000 kPa, x2 = 0.7549	831.2 ± 0.3
313.15 K, 24000 kPa, x2 = 0.8978	845.4 ± 0.3
313.15 K, 25000 kPa, x2 = 0.0955	761.7 ± 0.4
313.15 K, 25000 kPa, x2 = 0.2526	766 ± 0.4
313.15 K, 25000 kPa, x2 = 0.7549	833.3 ± 0.3
313.15 K, 25000 kPa, x2 = 0.8978	848.2 ± 0.3
313.16 K, 8000 kPa, x2 = 0.5259	768.4 ± 0.3
313.16 K, 9000 kPa, x2 = 0.5259	769.6 ± 0.3
313.16 K, 10000 kPa, x2 = 0.5259	770.7 ± 0.3
313.16 K, 11000 kPa, x2 = 0.5259	771.9 ± 0.3
313.16 K, 12000 kPa, x2 = 0.5259	773 ± 0.3
313.16 K, 13000 kPa, x2 = 0.5259	774.1 ± 0.3
313.16 K, 14000 kPa, x2 = 0.5259	775.1 ± 0.3
313.16 K, 15000 kPa, x2 = 0.5259	776.2 ± 0.3
313.16 K, 16000 kPa, x2 = 0.5259	777.2 ± 0.3
313.16 K, 17000 kPa, x2 = 0.5259	778.2 ± 0.3
313.16 K, 18000 kPa, x2 = 0.5259	779.2 ± 0.3
313.16 K, 19000 kPa, x2 = 0.5259	780.2 ± 0.4
313.16 K, 20000 kPa, x2 = 0.5259	781.1 ± 0.4
313.16 K, 21000 kPa, x2 = 0.5259	782 ± 0.4
313.16 K, 23000 kPa, x2 = 0.5259	783.8 ± 0.4
313.16 K, 24000 kPa, x2 = 0.5259	784.6 ± 0.4
313.16 K, 25000 kPa, x2 = 0.5259	785.5 ± 0.4
323.14 K, 11000 kPa, x2 = 0.8978	772.5 ± 0.3
323.14 K, 12000 kPa, x2 = 0.8978	777.9 ± 0.3
323.14 K, 13000 kPa, x2 = 0.8978	782.8 ± 0.4
323.14 K, 14000 kPa, x2 = 0.8978	787.3 ± 0.4
323.14 K, 15000 kPa, x2 = 0.8978	791.5 ± 0.4
323.14 K, 16000 kPa, x2 = 0.8978	795.7 ± 0.4
323.14 K, 17000 kPa, x2 = 0.8978	799.7 ± 0.4
323.14 K, 18000 kPa, x2 = 0.8978	803.4 ± 0.3
323.14 K, 19000 kPa, x2 = 0.8978	807.2 ± 0.3
323.14 K, 20000 kPa, x2 = 0.8978	810.7 ± 0.3
323.14 K, 21000 kPa, x2 = 0.8978	814 ± 0.3
323.14 K, 22000 kPa, x2 = 0.8978	817.5 ± 0.3
323.14 K, 23000 kPa, x2 = 0.8978	820.7 ± 0.3
323.14 K, 24000 kPa, x2 = 0.8978	823.8 ± 0.3
323.14 K, 25000 kPa, x2 = 0.8978	826.7 ± 0.3
323.16 K, 9000 kPa, x2 = 0.0955	743.8 ± 0.3
323.16 K, 9000 kPa, x2 = 0.2526	747 ± 0.3
323.16 K, 10000 kPa, x2 = 0.0955	744.6 ± 0.3
323.16 K, 10000 kPa, x2 = 0.2526	747.9 ± 0.3
323.16 K, 11000 kPa, x2 = 0.0955	745.4 ± 0.3
323.16 K, 11000 kPa, x2 = 0.2526	748.7 ± 0.3
323.16 K, 11000 kPa, x2 = 0.7549	778.8 ± 0.4
323.16 K, 12000 kPa, x2 = 0.0955	746.2 ± 0.3
323.16 K, 12000 kPa, x2 = 0.2526	749.6 ± 0.3
323.16 K, 12000 kPa, x2 = 0.7549	781.9 ± 0.3
323.16 K, 13000 kPa, x2 = 0.0955	746.9 ± 0.4
323.16 K, 13000 kPa, x2 = 0.2526	750.4 ± 0.3
323.16 K, 13000 kPa, x2 = 0.7549	785.1 ± 0.3
323.16 K, 14000 kPa, x2 = 0.0955	747.7 ± 0.4
